Active and inactive are the calls of the source. The calls are words filed in the database; no cut-off is given here.
What was measured:
[1] = target: T1, Mitogen-activated protein kinase 13 (Homo sapiens) (UniProt O15264); test: Inhibition of p38delta (unknown origin) at 10 uM by Ambit Kinomescan binding assay relative to control; values are per cent of control
T1 sequence (whole entry): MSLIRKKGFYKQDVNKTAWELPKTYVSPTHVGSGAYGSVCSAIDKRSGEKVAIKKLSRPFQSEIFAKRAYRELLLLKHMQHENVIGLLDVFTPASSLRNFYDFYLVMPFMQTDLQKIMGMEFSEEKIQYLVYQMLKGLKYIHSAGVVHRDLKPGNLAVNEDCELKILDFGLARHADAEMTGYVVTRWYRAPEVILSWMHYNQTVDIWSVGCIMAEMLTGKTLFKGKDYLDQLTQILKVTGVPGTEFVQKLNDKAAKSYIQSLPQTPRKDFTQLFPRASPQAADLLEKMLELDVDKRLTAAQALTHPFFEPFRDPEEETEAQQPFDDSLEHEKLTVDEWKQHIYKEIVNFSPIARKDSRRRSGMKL

[2] = target: Mitogen-activated protein kinase kinase kinase kinase 4 (Homo sapiens, UniProt O95819); test: Inhibition of ZC1/HGK K1 labeling site harbouring TGQLAAIKVMDVTEDEEEEIKLEINMLKK in human Huh-7 cells at 10 uM by KiNativ Profiling analysis relative to control; format: cell-based
Chain of Mitogen-activated protein kinase kinase kinase kinase 4 (O95819 2-1239 limits assumed): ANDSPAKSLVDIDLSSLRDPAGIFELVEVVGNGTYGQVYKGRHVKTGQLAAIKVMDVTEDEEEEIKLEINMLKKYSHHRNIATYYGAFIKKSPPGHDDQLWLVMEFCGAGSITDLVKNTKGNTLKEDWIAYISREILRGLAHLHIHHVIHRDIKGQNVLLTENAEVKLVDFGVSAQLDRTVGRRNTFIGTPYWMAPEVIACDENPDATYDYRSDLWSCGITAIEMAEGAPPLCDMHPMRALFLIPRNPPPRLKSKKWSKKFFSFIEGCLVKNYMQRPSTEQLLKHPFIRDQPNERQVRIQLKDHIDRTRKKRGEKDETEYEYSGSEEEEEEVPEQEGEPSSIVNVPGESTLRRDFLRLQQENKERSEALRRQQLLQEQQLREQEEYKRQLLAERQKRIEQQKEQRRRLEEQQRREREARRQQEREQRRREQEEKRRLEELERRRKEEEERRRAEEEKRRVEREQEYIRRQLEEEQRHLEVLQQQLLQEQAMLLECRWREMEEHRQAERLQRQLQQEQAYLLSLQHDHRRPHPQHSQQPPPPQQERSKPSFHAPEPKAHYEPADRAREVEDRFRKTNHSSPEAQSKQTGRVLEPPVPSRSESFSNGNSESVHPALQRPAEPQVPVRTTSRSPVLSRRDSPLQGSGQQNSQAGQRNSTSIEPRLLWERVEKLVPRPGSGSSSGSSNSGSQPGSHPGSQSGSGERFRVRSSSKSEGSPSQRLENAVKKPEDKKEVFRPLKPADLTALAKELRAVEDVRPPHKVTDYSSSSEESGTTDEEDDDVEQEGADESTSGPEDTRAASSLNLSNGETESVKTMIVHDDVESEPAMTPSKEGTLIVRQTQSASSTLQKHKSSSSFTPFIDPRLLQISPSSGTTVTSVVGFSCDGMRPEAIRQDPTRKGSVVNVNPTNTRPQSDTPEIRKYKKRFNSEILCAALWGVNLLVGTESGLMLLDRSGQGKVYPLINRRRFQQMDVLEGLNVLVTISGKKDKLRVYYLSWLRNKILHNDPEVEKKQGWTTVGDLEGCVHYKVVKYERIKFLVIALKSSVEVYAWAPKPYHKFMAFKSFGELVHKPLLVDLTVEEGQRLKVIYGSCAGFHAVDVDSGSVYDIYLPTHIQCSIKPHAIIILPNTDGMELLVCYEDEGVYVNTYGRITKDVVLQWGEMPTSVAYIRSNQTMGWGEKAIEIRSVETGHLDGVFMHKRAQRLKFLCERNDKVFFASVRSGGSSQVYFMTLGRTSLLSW

[3] = target: c-Jun N-terminal kinase, JNK (Homo sapiens) (UniProt P45983+P53779+P45984); test: Inhibition of JNK1/2/3 K2 labeling site in human Huh-7 cells at 10 uM by KiNativ Profiling analysis relative to control; format: cell-based
[4] = target: T2, Phosphatidylinositol 5-phosphate 4-kinase type-2 alpha (Homo sapiens) (UniProt P48426); test: Inhibition of PIP5K2A LIP labeling site in human Huh-7 cells at 10 uM by KiNativ Profiling analysis relative to control; format: cell-based
T2 sequence (whole entry): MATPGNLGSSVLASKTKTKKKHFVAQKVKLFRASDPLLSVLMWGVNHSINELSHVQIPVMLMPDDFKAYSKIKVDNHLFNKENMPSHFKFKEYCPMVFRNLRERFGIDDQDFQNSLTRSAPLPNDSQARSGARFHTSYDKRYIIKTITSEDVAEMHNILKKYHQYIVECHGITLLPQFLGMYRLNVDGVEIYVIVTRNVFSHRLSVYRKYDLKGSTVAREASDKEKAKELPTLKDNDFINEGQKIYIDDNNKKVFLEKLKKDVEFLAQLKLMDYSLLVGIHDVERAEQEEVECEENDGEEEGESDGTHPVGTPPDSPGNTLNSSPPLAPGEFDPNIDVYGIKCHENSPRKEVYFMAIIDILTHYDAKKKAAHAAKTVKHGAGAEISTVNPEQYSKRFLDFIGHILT

[5] = Inhibition of KHS1 Lys2 labeling site in human A-375 cells at 0.05 uM by KiNativ Profiling analysis relative to control; settings: condition cancer
[6] = target: Cyclin-dependent kinase 18 (Homo sapiens) (UniProt Q07002); test: Inhibition of PCTK3 (unknown origin) at 10 uM by Ambit Kinomescan binding assay relative to control
[7] = target: Mitogen-activated protein kinase kinase kinase 10 (Homo sapiens) (UniProt Q02779); test: Inhibition of MLK2 (unknown origin) at 10 uM by Ambit Kinomescan binding assay
[8] = target: Tyrosine-protein kinase CSK (Homo sapiens, UniProt P41240); test: Inhibition of CSK ACT labeling site harbouring VSDFGLTKEASSTQDTGK in human Huh-7 cells at 1 uM by KiNativ Profiling analysis relative to control; format: cell-based
Chain of Tyrosine-protein kinase CSK (P41240 2-450 limits assumed): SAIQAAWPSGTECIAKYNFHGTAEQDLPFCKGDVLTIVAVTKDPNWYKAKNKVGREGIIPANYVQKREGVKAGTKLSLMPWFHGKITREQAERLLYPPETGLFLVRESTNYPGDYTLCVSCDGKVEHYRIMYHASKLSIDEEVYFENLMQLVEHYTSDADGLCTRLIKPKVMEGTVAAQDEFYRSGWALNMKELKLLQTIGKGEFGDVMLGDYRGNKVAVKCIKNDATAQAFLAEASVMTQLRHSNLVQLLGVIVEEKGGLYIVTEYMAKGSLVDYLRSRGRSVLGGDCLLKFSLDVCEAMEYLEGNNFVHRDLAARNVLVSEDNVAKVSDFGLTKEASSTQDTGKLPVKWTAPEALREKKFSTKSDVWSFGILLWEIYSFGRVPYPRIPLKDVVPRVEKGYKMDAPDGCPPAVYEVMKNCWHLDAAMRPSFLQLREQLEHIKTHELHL

[9] = target: Cyclin-dependent kinase 2 (Homo sapiens) (UniProt P24941); test: Inhibition of CDK2 Lys2 labeling site harbouring VLHRDLKPQNLLINTEGAIK in human Huh-7 cells at 1 uM by KiNativ Profiling analysis relative to control; format: cell-based
[10] = target: Ribosomal protein S6 kinase alpha-3 (Homo sapiens) (UniProt P51812); test: Inhibition of RSK2 domain2 Lys2 labeling site DLKPSNILYVDESGNPESIR in human Huh-7 cell lysate at 1 uM by KiNativ Profiling analysis relative to control; format: subcellular
[11] = target: Phosphatidylinositol 4,5-bisphosphate 3-kinase catalytic subunit alpha isoform (Homo sapiens) (UniProt P42336); test: Inhibition of PIK3CA ATP labeling site in human A-375 cells at 0.05 uM by KiNativ Profiling analysis relative to control; format: cell-based
Chain of Phosphatidylinositol 4,5-bisphosphate 3-kinase catalytic subunit alpha isoform (Homo sapiens) (P42336 whole entry, canonical isoform): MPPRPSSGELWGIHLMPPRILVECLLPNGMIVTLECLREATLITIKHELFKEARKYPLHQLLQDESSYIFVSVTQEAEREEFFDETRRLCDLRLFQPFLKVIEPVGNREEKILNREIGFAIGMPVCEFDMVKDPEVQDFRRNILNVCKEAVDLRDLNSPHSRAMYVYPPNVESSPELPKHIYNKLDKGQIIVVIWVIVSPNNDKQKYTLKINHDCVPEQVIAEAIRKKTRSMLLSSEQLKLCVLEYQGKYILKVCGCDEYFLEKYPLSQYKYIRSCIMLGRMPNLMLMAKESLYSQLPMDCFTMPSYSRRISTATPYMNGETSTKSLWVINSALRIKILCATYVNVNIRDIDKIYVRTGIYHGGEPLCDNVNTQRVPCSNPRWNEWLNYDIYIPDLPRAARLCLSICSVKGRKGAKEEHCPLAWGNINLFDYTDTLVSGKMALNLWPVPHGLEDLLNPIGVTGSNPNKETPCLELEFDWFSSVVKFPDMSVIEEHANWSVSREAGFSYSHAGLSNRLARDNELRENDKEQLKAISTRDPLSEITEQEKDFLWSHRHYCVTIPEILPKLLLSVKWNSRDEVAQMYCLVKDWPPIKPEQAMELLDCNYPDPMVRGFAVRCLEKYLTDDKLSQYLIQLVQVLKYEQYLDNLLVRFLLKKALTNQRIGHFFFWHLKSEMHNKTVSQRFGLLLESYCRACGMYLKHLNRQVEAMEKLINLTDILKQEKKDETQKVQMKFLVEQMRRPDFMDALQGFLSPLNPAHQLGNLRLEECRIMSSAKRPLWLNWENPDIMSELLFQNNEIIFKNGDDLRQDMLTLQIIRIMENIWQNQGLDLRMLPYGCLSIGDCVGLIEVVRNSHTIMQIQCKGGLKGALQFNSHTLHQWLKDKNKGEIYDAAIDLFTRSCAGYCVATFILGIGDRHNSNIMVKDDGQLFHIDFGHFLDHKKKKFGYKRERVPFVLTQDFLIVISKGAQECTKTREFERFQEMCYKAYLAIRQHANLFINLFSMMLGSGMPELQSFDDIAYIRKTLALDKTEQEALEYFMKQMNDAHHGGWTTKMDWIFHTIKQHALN

[12] = target: Receptor tyrosine-protein kinase erbB-4 (Homo sapiens) (UniProt Q15303); test: Inhibition of ERBB4 (unknown origin) at 1 uM by Ambit Kinomescan binding assay relative to control
Chain of Receptor tyrosine-protein kinase erbB-4 (Homo sapiens) (Q15303 whole entry): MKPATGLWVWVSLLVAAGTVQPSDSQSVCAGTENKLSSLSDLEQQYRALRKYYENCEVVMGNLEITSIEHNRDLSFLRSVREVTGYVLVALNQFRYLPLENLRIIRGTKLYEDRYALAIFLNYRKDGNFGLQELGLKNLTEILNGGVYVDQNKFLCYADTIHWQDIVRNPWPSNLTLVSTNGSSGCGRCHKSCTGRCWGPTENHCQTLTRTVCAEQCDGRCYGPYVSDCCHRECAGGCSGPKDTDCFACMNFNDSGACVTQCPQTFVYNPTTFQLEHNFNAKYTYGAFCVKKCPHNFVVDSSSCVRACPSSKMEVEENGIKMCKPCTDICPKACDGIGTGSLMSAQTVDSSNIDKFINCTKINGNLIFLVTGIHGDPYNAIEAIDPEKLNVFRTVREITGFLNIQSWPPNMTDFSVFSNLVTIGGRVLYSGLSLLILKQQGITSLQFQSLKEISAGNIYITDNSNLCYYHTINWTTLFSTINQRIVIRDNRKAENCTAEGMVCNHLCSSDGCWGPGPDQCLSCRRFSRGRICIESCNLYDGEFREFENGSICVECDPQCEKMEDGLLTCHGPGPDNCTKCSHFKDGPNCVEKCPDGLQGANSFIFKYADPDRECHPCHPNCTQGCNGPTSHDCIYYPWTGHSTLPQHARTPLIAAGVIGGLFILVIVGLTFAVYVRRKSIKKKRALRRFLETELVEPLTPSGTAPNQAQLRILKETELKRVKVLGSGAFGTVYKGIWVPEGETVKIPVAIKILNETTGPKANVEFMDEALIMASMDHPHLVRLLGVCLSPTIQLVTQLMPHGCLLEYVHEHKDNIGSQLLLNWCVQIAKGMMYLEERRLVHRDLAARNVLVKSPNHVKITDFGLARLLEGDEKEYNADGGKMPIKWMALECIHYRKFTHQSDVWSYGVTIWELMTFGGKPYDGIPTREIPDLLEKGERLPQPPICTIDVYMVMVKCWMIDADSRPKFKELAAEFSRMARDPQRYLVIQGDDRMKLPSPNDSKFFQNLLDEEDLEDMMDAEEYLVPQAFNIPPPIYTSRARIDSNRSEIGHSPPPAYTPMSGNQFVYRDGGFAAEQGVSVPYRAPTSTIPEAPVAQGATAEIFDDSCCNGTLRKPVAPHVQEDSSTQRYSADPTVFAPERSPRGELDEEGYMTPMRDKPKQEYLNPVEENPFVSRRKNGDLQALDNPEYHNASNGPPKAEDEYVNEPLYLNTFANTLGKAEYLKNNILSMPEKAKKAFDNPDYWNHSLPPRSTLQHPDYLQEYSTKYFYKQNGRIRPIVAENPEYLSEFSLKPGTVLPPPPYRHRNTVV

[13] = target: T3, Serine/threonine-protein kinase ULK3 (Homo sapiens) (UniProt Q6PHR2); test: Inhibition of ULK3 (unknown origin) at 1 uM by Ambit Kinomescan binding assay relative to control
T3 sequence (whole entry): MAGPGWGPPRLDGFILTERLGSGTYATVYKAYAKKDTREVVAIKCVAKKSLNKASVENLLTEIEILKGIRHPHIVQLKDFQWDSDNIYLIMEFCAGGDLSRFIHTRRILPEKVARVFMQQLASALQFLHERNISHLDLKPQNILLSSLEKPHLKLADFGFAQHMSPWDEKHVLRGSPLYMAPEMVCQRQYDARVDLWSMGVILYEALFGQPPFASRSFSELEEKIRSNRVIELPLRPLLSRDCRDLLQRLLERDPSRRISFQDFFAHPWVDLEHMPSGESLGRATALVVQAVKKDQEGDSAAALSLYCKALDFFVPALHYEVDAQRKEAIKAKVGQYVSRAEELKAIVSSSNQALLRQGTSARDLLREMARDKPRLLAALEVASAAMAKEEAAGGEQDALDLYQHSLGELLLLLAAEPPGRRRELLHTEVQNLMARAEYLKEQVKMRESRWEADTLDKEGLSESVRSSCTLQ

[14] = target: Phosphatidylinositol 4-kinase beta (Homo sapiens) (UniProt Q9UBF8); test: Inhibition of PIK4CB (unknown origin) at 1 uM by Ambit Kinomescan binding assay relative to control; values are per cent of control
Chain of Phosphatidylinositol 4-kinase beta (Homo sapiens) (Q9UBF8 2-816 limits assumed): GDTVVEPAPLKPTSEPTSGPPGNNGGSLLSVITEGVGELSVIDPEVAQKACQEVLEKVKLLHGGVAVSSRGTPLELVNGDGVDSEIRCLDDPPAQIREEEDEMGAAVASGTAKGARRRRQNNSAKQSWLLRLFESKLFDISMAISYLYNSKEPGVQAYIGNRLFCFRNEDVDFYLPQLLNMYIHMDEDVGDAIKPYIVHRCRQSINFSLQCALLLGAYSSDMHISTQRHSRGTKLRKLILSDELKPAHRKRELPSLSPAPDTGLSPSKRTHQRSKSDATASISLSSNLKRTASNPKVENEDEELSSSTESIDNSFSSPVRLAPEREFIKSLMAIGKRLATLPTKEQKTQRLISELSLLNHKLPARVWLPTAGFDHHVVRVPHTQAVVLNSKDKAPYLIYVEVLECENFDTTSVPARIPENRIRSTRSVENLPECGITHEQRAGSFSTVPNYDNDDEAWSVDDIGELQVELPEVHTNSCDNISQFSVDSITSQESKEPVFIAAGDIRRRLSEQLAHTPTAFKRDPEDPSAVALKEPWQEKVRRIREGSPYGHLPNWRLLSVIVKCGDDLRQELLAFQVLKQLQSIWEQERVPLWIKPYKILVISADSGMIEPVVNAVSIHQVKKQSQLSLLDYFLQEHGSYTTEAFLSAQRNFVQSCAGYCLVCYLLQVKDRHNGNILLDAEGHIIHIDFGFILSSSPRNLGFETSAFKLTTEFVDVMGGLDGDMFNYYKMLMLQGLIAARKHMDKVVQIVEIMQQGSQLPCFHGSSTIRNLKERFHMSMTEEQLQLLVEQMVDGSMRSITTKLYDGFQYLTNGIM

[15] = target: Citron Rho-interacting kinase (Homo sapiens) (UniProt O14578); test: Inhibition of CIT (unknown origin) at 1 uM by Ambit Kinomescan binding assay relative to control

## CCN1CCN(Cc2ccc(NC(=O)c3ccc(C)c(Oc4ccnc5[nH]ccc45)c3)cc2C(F)(F)F)CC1
[1]
  percent of control: 0.55%
[2]
  inhibition: 75.4%
[3]
  inhibition: 60.1%
[4]
  inhibition: 0%
[5]
  inhibition at 0.05 µM: -15.4%
[6]
  inhibition: 1.8%
[7]
  inhibition: inactive

## CNc1cc(Oc2cc(C(=O)Nc3cc(N4CCN(C)CC4)cc(C(F)(F)F)c3)ccc2C)ncn1
[8]
  inhibition: 16.6%
[9]
  inhibition: 29.3%
[10]
  inhibition: 0.2%

## CCN1CCN(Cc2ccc(NC(=O)c3ccc(C)c(/C=C/c4cnc5[nH]ccc5c4OC)c3)cc2C(F)(F)F)CC1
[11]
  inhibition: 39%
[12]
  inhibition: 3%
[13]
  inhibition: 55%
[14]
  residual activity: 100%
[15]
  inhibition: 4.6%
